The text below walks through data of PMC10527105, “Chirality Matters: Fine-Tuning of Novel Monoamine Reuptake Inhibitors Selectivity through Manipulation of Stereochemistry” (Biomolecules, 2023).

Usually IC50 stands for the point on the concentration scale where inhibition reaches its midpoint. A lower IC50 goes with higher potency. A word on the Ki: it is the equilibrium dissociation constant of an inhibitor or competing ligand from its target. As usually defined, the Cmax is the peak of the concentration-time curve. In general, half-life refers to the time in which the quantity being followed falls by half. The low end stands for fast loss, the high end for slow loss. A word on the Tmax: it is the time from dosing to the highest level.

Series [1] addresses T1, human dopamine transporter/SLC6A3 (DAT) (Homo sapiens, UniProt Q01959).
T1 construct: expressed in transfected cells; host or cells: HEK293
Kind of series: Cellular uptake experiments: [3H]-dopamine reuptake inhibition in transporter-expressing HEK293 cells. It is filed as cell-based. Particulars: Reuptake Inhibition (IC50 ± SE, µM) DAT, cells stably expressing DAT; [3H]-dopamine 1 µM; screening cut-off 50 µM. The procedure, abridged:
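Stably transfected HEK293 cells preincubated 5 min with compound, then 1 µM [3H]-substrate for 2.5 min (SERT: 5 min) at 25 °C, pH 7.1 buffer; uptake counted by scintillation. Nonspecific uptake defined with 10 µM mazindol (DAT, NET) or 10 µM clomipramine (SERT).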

A further series deals with T2, human DAT (Homo sapiens, UniProt Q01959).
T2 construct: host or cells: CHO
The series is described as follows: Radioligand binding assay, [3H]BTCP, CHO cells (Eurofins Cerep). On the procedure:
(§1) Binding experiments. Binding affinity to the human DAT, SERT, and NET stable proteins expressed in CHO cells was evaluated in in vitro radioligand binding assays. Non-specific binding was determined using [^3H]BTCP, [^3H]imipramine, and ^[3H] nisoxetine for hDAT, hSERT, and hNET, respectively. The IC50 values were calculated by non-linear regression analysis of the competition curves generated from the mean replicate values. The Ki values were calculated using the Cheng–Prusoff equation (Ki = IC50/(1 + […])). Binding assays were carried out by Eurofins (Cerep SA, Celle l’Evescault, France), Study No. 100053935. For an in-depth description, please refer to the report in the supporting information file.

Another series has as its target T3, human NET (Homo sapiens, UniProt P23975).
T3 construct: host or cells: CHO
Kind of series: Radioligand binding assay, [3H]nisoxetine, CHO cells (Eurofins Cerep). The conditions noted are these: human NET expressed in CHO cells; read-out: Ki, binding sites of the NET (against [3H]nisoxetine). On the procedure:
as §1

Series [2] is described as follows: Compound brain levels after intraperitoneal injection. Particulars: single intraperitoneal injection, 10 mg/kg, Sprague–Dawley rats. It is filed as in vivo. On the procedure: Compound brain levels. For an in-depth description of the brain and blood at 7h, we refer to the protocol of Evotec (France, Study No. DMPK-2020-494) in the supplementary information file.

T1 sequence (Q01959 whole entry): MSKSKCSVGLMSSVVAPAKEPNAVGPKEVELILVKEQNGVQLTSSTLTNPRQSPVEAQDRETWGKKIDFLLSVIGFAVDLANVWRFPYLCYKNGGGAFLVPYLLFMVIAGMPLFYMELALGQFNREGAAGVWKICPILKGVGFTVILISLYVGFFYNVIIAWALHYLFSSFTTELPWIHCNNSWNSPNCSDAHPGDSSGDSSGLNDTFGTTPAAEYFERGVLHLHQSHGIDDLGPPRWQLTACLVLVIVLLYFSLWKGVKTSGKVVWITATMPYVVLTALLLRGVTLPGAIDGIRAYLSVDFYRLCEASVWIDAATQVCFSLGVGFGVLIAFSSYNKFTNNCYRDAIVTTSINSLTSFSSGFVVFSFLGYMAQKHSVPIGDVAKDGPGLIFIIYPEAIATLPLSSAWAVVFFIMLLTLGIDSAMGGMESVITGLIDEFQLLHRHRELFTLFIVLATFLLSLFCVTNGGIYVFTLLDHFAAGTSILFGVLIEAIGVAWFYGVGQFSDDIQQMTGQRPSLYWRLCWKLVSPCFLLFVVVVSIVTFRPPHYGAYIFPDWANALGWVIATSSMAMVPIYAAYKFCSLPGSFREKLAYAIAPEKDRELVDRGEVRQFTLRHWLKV
T2 sequence (Q01959 whole entry): as above
T3 sequence (P23975 whole entry): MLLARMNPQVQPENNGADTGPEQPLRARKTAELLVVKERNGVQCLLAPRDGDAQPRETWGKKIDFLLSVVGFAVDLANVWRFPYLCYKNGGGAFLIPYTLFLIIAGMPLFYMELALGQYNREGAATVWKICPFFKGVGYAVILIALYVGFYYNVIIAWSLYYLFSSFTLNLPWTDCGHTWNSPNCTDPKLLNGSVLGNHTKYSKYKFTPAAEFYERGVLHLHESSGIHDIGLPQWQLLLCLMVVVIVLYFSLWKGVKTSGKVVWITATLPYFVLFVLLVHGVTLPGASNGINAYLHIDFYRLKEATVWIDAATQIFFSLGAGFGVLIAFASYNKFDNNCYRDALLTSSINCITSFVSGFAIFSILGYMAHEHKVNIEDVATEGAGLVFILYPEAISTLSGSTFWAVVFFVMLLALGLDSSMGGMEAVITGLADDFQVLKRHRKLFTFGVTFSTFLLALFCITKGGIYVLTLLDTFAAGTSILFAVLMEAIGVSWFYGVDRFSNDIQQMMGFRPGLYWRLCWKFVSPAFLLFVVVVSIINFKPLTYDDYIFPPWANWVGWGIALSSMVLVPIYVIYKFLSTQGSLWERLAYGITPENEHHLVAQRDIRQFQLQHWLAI

In turn, `[O-][S@@+](Cc1cccs1)[C@@H](c1ccccc1)c1cccc(Br)c1` [Compound 7h, (S,S)-2-((((3-bromophenyl)(phenyl)methyl)sulfinyl)methyl)thiophene] displayed an IC50 in series [1] of 0.48 ± 0.11 µM. In addition, the Ki on human DAT was determined as 13 nM. In addition, the Ki at human NET was over 10000 nM. In series [2] (rat, brain, ip), the highest level (Cmax) was 478 ng/g and the half-life is 3 h. The Tmax in series [2] (rat, brain, ip, read-out: median Tmax in the brain) was determined as 1 h. Further, the “detectable in brain post-administration” value in series [2] is listed as “up to 10 h”.
The compound `[O-][S@+](Cc1cccs1)[C@H](c1ccccc1)c1cccc(Br)c1` [Compound 8h, (R,R)-2-((((3-bromophenyl)(phenyl)methyl)sulfinyl)methyl)thiophene] returned an IC50 in series [1] of 0.3 ± 0.03 µM. Further, the Ki is 35 nM on human DAT and over 10000 nM at human NET.
